Measurements taken from patent US10562909B2, “Fused quadracyclic compounds, compositions and uses thereof” (Tabomedex Biosciences, LLC, priority 2016, dated 2020).

Molecular target: MAPKAPK2 (Homo sapiens, UniProt P49137)
Assay: MK2 Enzymatic Assay
Format: biochemical
Conditions: 0.5 nM MAPKAPK2, 3 μM ATP, 2 μM Ser/Thr4 peptide, 23° C., values given as concentration bins
Procedure: Briefly, 5 μL of 2× (4 μM) 100% phosphorylation peptide was delivered into the control wells of a 384-well assay plate. 5 μL of 2× (1 nM) MAPKAPK2 and 2× peptide (4 μM) mixture in assay buffer was dispensed to remaining columns of assay plate using Eppendorf electronic multiple channel pipette. The assay plate was incubated for 20 minutes. 5 μL of 2× ATP (6 μM) in assay buffer was dispensed to each well and then the assay plate was lightly centrifuged. The assay plate was incubated for an additional 120 minutes.
5 μL of development reagent A was dispensed to all wells using Eppendorf electronic multiple channel pipette. After incubating the development reaction for 120 min, plates were read on a Perkin Elmer Envision instrument.
Percent phosphorylation was calculated using the following formula:
[formula] Where • C100%=Average Coumarin emission signal of the 100% Phos. Control • C0%=Average Coumarin emission signal of the 0% Phos. Control • F100%=Average Fluorescein emission signal of the 100% Phos. Control • F0%=Average Flurescein emission signal of the 0% Phos. Control

Sequence of MAPKAPK2 (P49137 whole entry, species assumed): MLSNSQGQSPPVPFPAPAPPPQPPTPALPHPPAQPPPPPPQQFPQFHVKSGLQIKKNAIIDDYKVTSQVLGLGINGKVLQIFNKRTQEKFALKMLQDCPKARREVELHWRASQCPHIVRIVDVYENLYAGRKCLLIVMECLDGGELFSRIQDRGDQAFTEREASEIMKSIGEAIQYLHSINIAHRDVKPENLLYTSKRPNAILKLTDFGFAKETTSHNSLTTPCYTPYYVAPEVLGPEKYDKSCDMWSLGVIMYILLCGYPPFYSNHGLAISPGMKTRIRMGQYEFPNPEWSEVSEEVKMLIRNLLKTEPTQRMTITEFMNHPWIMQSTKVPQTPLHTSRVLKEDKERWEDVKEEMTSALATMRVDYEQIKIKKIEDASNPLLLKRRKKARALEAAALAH

| Compound | IC50 [nM] |
| --- | --- |
| CN(C)[C@@H]1CN(c2ccc3c(c2)Cn2cc(-c4ccc(C#N)cc4)cc2-c2nncn2-3)C[C@H]1O (racemic) [Compound 57, 4-(7-(trans-3-(dimethylamino)-4-hydroxypyrrolidin-1-yl)-9H-benzo[e]pyrrolo[1,2-a][1,2,4]triazolo[3,4-c][1,4]diazepin-12-yl)benzonitrile] | < 50 |
| CNC[C@H]1CN(c2ccc3c(c2)Cn2cc(-c4ccc(C#N)cc4)cc2-c2nncn2-3)C[C@H]1O (racemic) [Compound 73, 4-(7-(cis-3-hydroxy-4-((methylamino)methyl)pyrrolidin-1-yl)-9H-benzo[e]pyrrolo[1,2-a] [1,2,4]triazolo[3,4-c][1,4]diazepin-12-yl)benzonitrile] | < 50 |
| CN(C)C[C@H]1CN(c2ccc3c(c2)Cn2cc(-c4ccc(C#N)cc4)cc2-c2nncn2-3)C[C@@H]1O (racemic) [Compound 74, 4-(7-(trans-3-((dimethylamino)methyl)-4-hydroxypyrrolidin-1-yl)-9H-benzo[e]pyrrolo[1,2-a][1,2,4]triazolo[3,4-c][1,4]diazepin-12-yl)benzonitrile] | < 50 |
| N#Cc1ccc(-c2cc3n(c2)Cc2cc(N4C[C@@H](F)[C@@H](N)C4)ccc2-n2cnnc2-3)cc1 (racemic) [Compound 76, 4-(7-(cis-3-amino-4-fluoropyrrolidin-1-yl)-9H-benzo[e]pyrrolo[1,2-a][1,2,4]triazolo[3,4-c][1,4]diazepin-12-yl)benzonitrile] | < 50 |
| N#Cc1ccc(-c2cc3n(c2)Cc2cc(N4CC[C@H]5NCC[C@@H]54)ccc2-n2nnnc2-3)cc1 (racemic) [Compound 232, 4-(7-(trans-hexahydropyrrolo[3,2-b]pyrrol-1(2H)-yl)-9H-benzo[e]pyrrolo[1,2-a]tetrazolo[5,1-c][1,4]diazepin-12-yl)benzonitrile] | < 50 |
| N#Cc1ccc(-c2cc3n(c2)Cc2cc(N4CC[C@H]5NCC[C@@H]54)ccc2-n2ncnc2-3)cc1 (racemic) [Compound 249, 4-(7-(trans-hexahydropyrrolo[3,2-b]pyrrol-1(2H)-yl)-9H-benzo[e]pyrrolo[1,2-a][1,2,4]triazolo[5,1-c][1,4]diazepin-12-yl)benzonitrile] | < 50 |
| N#Cc1ccc(-c2cc3n(c2)Cc2cc(N4CC[C@H]5NCC[C@@H]54)ncc2-n2cnnc2-3)cc1 (racemic) [Compound 314, 4-(7-(trans-hexahydropyrrolo[3,2-b]pyrrol-1(2H)-yl)-9H-pyrido[3,4-e]pyrrolo[1,2-a][1,2,4]triazolo[3,4-c][1,4]diazepin-12-yl)benzonitrile] | < 50 |
| CNC[C@H]1CN(c2ccc3c(c2)Cn2cc(-c4ccc(C#N)cc4)cc2-c2nncn2-3)C[C@@H]1O (relative stereo) [Compound 72, 4-(7-(trans-3-hydroxy-4-((methylamino)methyl)pyrrolidin-1-yl)-9H-benzo[e]pyrrolo[1,2-a][1,2,4]triazolo[3,4-c][1,4]diazepin-12-yl)benzonitrile] | < 50 |
| CN(C)C[C@H]1CN(c2ccc3c(c2)Cn2cc(-c4ccc(C#N)cc4)cc2-c2nncn2-3)C[C@H]1O (relative stereo) [Compound 75, 4-(7-(Cis-3-((dimethylamino)methyl)-4-hydroxypyrrolidin-1-yl)-9H-benzo[e]pyrrolo[1,2-a] [1,2,4]triazolo[3,4-c][1,4]diazepin-12-yl)benzonitrile] | < 50 |
| O[C@@H]1CN(c2ccc3c(c2)Cn2cc(-c4ccc(F)cc4)cc2-c2nccn2-3)C[C@H]1CN1CCCC1 (relative stereo) [Compound 472, (Trans)-1-(12-(4-fluorophenyl)-9H-benzo[e]imidazo[2,1-c]pyrrolo[1,2-a][1,4]diazepin-7-yl)-4-(pyrrolidin-1-ylmethyl)pyrrolidin-3-ol] | < 50 |
| OC1CN(c2ccc3c(c2)Cn2cc(-c4ccc(F)cc4)cc2-c2nccn2-3)CC1CN1CCC1 (single isomer, unassigned) [Compound 468] | < 50 |
| OC1CN(c2ccc3c(c2)Cn2cc(-c4ccc(F)cc4)cc2-c2nccn2-3)CC1CN1CCC1 (single isomer, unassigned) [Compound 469] | < 50 |
| N#Cc1ccc(-c2cc3n(c2)Cc2cc(N4CCNCC4)ccc2-n2cnnc2-3)cc1 [Compound 1, 4-(7-(piperazin-1-yl)-9H-benzo[e]pyrrolo[1,2-a][1,2,4]triazolo[3,4-c][1,4]diazepin-12-yl)benzonitrile] | 100 to 200 |
| CNCC1CN(c2ccc3c(c2)Cn2cc(-c4ccc(C#N)cc4)cc2-c2nncn2-3)C1 [Compound 11, 4-(7-(3-((methylamino)methyl)azetidin-1-yl)-9H-benzo[e]pyrrolo[1,2-a][1,2,4]triazolo[3,4-c][1,4]diazepin-12-yl)benzonitrile] | 50 to 100 |
| CN(C)[C@H]1CN(c2ccc3c(c2)Cn2cc(-c4ccc(C#N)cc4)cc2-c2nncn2-3)C[C@@H]1O [Compound 58, 4-(7-((3S,4S)-3-(dimethylamino)-4-hydroxypyrrolidin-1-yl)-9H-benzo[e]pyrrolo[1,2-a][1,2,4]triazolo[3,4-c][1,4]diazepin-12-yl)benzonitrile] | 50 to 100 |

Next, values leading:

| IC50 [nM] | Compound |
| --- | --- |
| < 50 | N[C@H]1CN(c2ccc3c(c2)Cn2cc(-c4ccc(F)cc4)cc2-c2nccn2-3)C[C@@H]1CO (relative stereo) [Compound 489, ((trans)-4-amino-1-(12-(4-fluorophenyl)-9H-benzo[e]imidazo[2,1-c]pyrrolo[1,2-a][1,4]diazepin-7-yl)pyrrolidin-3-yl)methanol] |
| < 50 | CN(C)[C@@H]1CN(c2ccc3c(c2)Cn2cc(-c4ccc(F)cc4)cc2-c2nccn2-3)C[C@H]1CO (relative stereo) [Compound 490, ((Trans)-4-(dimethylamino)-1-(12-(4-fluorophenyl)-9H-benzo[e]imidazo[2,1-c]pyrrolo[1,2-a][1,4]diazepin-7-yl)pyrrolidin-3-yl)methanol] |
| < 50 | CN[C@@H]1CN(c2ccc3c(c2)Cn2cc(-c4ccc(F)cc4)cc2-c2nccn2-3)C[C@H]1CO (relative stereo) [Compound 491, ((Trans)-1-(12-(4-fluorophenyl)-9H-benzo[e]imidazo[2,1-c]pyrrolo[1,2-a][1,4]diazepin-7-yl)-4-(methylamino)pyrrolidin-3-yl)methanol] |
| < 50 | NCC[C@H]1CN(c2ccc3c(c2)Cn2cc(-c4ccc(F)cc4)cc2-c2nccn2-3)C[C@@H]1O (relative stereo) [Compound 492, Trans-4-(2-aminoethyl)-1-(12-(4-fluorophenyl)-9H-benzo[e]imidazo[2,1-c]pyrrolo[1,2-a][1,4]diazepin-7-yl)pyrrolidin-3-ol] |
| < 50 | CNCC[C@H]1CN(c2ccc3c(c2)Cn2cc(-c4ccc(F)cc4)cc2-c2nccn2-3)C[C@@H]1O (relative stereo) [Compound 493, Trans-1-(12-(4-fluorophenyl)-9H-benzo[e]imidazo[2,1-c]pyrrolo[1,2-a][1,4]diazepin-7-yl)-4-(2-(methylamino)ethyl)pyrrolidin-3-ol] |
| < 50 | CN(C)CC[C@H]1CN(c2ccc3c(c2)Cn2cc(-c4ccc(F)cc4)cc2-c2nccn2-3)C[C@@H]1O (relative stereo) [Compound 494, Trans-4-(2-(dimethylamino)ethyl)-1-(12-(4-fluorophenyl)-9H-benzo[e]imidazo[2,1-c]pyrrolo[1,2-a][1,4]diazepin-7-yl)pyrrolidin-3-ol] |
| 100 to 200 | OC[C@@H]1CNC[C@H]1Nc1ccc2c(c1)Cn1cc(-c3ccc(F)cc3)cc1-c1nccn1-2 (relative stereo) [Compound 495, (Trans-4-((12-(4-fluorophenyl)-9H-benzo[e]imidazo[2,1-c]pyrrolo[1,2-a][1,4]diazepin-7-yl)amino)pyrrolidin-3-yl)methanol] |
| < 50 | CNC[C@H]1CN(c2ccc3c(c2)Cn2cc(-c4ccc(F)cc4)cc2-c2ncnn2-3)C[C@H]1F (relative stereo) [Compound 501, 1-(cis-4-fluoro-1-(12-(4-fluorophenyl)-9H-benzo[e]pyrrolo[1,2-a][1,2,4]triazolo[5,1-c][1,4]diazepin-7-yl)pyrrolidin-3-yl)-N-methylmethanamine] |
| < 50 | CN(C)C[C@H]1CN(c2ccc3c(c2)Cn2cc(-c4ccc(F)cc4)cc2-c2ncnn2-3)C[C@H]1F (relative stereo) [Compound 502, 1-(cis-4-fluoro-1-(12-(4-fluorophenyl)-9H-benzo[e]pyrrolo[1,2-a][1,2,4]triazolo[5,1-c][1,4]diazepin-7-yl)pyrrolidin-3-yl)-N,N-dimethylmethanamine] |
| 100 to 200 | N[C@@H]1CN(c2ccc3c(c2)Cn2cc(-c4ccc(F)cc4)cc2-c2ncnn2-3)C[C@H]1CO (relative stereo) [Compound 503, (Trans-4-amino-1-(12-(4-fluorophenyl)-9H-benzo[e]pyrrolo[1,2-a][1,2,4]triazolo[5,1-c][1,4]diazepin-7-yl)pyrrolidin-3-yl)methanol] |
| 100 to 200 | CN(C)[C@@H]1CN(c2ccc3c(c2)Cn2cc(-c4ccc(F)cc4)cc2-c2ncnn2-3)C[C@H]1CO (relative stereo) [Compound 504, (Trans-4-(dimethylamino)-1-(12-(4-fluorophenyl)-9H-benzo[e]pyrrolo[1,2-a][1,2,4]triazolo[5,1-c][1,4]diazepin-7-yl)pyrrolidin-3-yl)methanol] |
| 50 to 100 | CN[C@@H]1CN(c2ccc3c(c2)Cn2cc(-c4ccc(F)cc4)cc2-c2ncnn2-3)C[C@H]1CO (relative stereo) [Compound 505, (Trans-1-(12-(4-fluorophenyl)-9H-benzo[e]pyrrolo[1,2-a][1,2,4]triazolo[5,1-c][1,4]diazepin-7-yl)-4-(methylamino)pyrrolidin-3-yl)methanol] |
